Reference: ChEMBL document CHEMBL2095176, “GSK Tuberculosis Screening Data”
≈ marks a conversion by molar mass, not a printed value.

test system: Mycobacterium tuberculosis variant bovis BCG; experiment: microbe, parasite or virus in culture; type: functional

SMILES | MIC90 [µM]
c1ccc(-c2nc(N3CCCCCC3)nc(-n3ccnc3)n2)cc1 | 9.6 (≈ 3.08 µg/mL)
CCOc1ccc(NC(=O)N(C2CCCCC2)C(C)c2cccnc2)cc1 (stereo unspecified) | 7.2 (≈ 2.65 µg/mL)
Cc1ccc(Nc2ccc(C(=O)O)cc2N)cc1 | 7.9 (≈ 1.91 µg/mL)
Clc1ccc(-c2nnc3sc(Cc4cccs4)nn23)cc1 | 7.5 (≈ 2.5 µg/mL)
O=C(Nc1nc(-c2ccccn2)cs1)c1cc2ccccc2o1 | 7 (≈ 2.25 µg/mL)
Cc1ccc(-c2ccc(SCC(=O)Nc3nonc3C)nn2)cc1 | 6.8 (≈ 2.32 µg/mL)
CCc1nnc(NC(=O)c2cccc(C(=O)Nc3nnc(CC)s3)n2)s1 | 1.5 (≈ 0.584 µg/mL)
O=C(Nc1nc(-c2ccccn2)cs1)c1ccc2c(c1)CCCC2 | 6.8 (≈ 2.28 µg/mL)
CCCc1cc(-c2nc(-c3ccc4c(c3)OCO4)cs2)ccn1 | 6.7 (≈ 2.17 µg/mL)
Cc1cc(/C=C/c2cccc(C(=O)O)c2)cc(Cl)c1OCC1CCCNC1 (stereo unspecified) | 6.7 (≈ 2.59 µg/mL)
Clc1ccc(-c2ccc3c(c2)CC(NCc2ccc(-n4cncn4)cc2)C3)cc1 (stereo unspecified) | 6.7 (≈ 2.69 µg/mL)
COc1cc(CN2CCC(Cc3nc(-c4ccc5c(c4)CCO5)no3)C2)ccc1F (stereo unspecified) | 6.7 (≈ 2.74 µg/mL)
CC(C)Oc1ccc(NCC(=O)Nc2ccc(F)cc2)cc1 | 6.7 (≈ 2.03 µg/mL)
O=C(CSc1ccccc1)Nc1nc(-c2ccccn2)cs1 | 6.7 (≈ 2.19 µg/mL)
O=c1c2sc(-c3ccc(Cl)cc3)cc2ncn1-c1ccc(OCCN2CC[C@@H](F)C2)cc1 | 6.7 (≈ 3.15 µg/mL)
CC(C)OC(=O)COc1ccc(-c2cnc(N(C)CCc3ccncc3)nc2)cc1 | 8.5 (≈ 3.46 µg/mL)
COCCCNCCOc1ccc2ccccc2c1Br | 6.8 (≈ 2.3 µg/mL)
O=C(NC(=Cc1ccc(-c2cccc(C(F)(F)F)c2)o1)C(=O)N1CCOCC1)c1ccccc1 | 6.8 (≈ 3.2 µg/mL)
O=C(NNC(=O)C1CC1C(=O)O)c1ccncc1 (stereo unspecified) | 6.8 (≈ 1.69 µg/mL)
CC(C)c1ccc(C(=O)Nc2ccc3c(c2)CN(C)CC3)cc1C(F)(F)F | 6.8 (≈ 2.56 µg/mL)
COc1ccc(CC(=O)Nc2c(-c3cccs3)nc3cc(C)ccn23)cc1 | 9.2 (≈ 3.47 µg/mL)
COc1ccc(-c2nc(NC(=O)C3CCCN3S(=O)(=O)c3cccs3)sc2C)cc1 (stereo unspecified) | 6.9 (≈ 3.2 µg/mL)
CC(=O)Oc1ccc(Cn2cc(C(=O)NCc3ccccc3)sc2=O)cc1 | 6.9 (≈ 2.64 µg/mL)

SMILES | MIC90 [µM]
CS(=O)(=O)c1oc(-c2cccs2)nc1S(=O)(=O)c1ccc(F)cc1 | 6.9 (≈ 2.67 µg/mL)
CC(C)COc1ccc(C(=O)Nc2ccc(N3CCN(C)CC3)cc2)cc1 | 6.9 (≈ 2.54 µg/mL)
O=C(Nc1cccc(C(=O)N2CCCC2c2nc3ccccc3s2)c1)c1cccs1 (stereo unspecified) | 6.9 (≈ 2.99 µg/mL)
Cc1cc(=O)[nH]c(-n2nc(C)cc2NC(=O)COc2ccccc2C)n1 | 6.9 (≈ 2.44 µg/mL)
COc1ccc(-c2ccc(Nc3cccc(S(=O)(=O)CCNCCn4nc(C)cc4C)c3)nc2)cn1 | 6.9 (≈ 3.5 µg/mL)
O=C(Nc1nncs1)c1c(O)c2ccccc2n(Cc2ccccc2)c1=O | 6.9 (≈ 2.61 µg/mL)
CCC1=NN(C(=O)c2ccncc2)C(O)(c2ccncc2)C1 (stereo unspecified) | 6.9 (≈ 2.04 µg/mL)
Cn1c(Sc2ccnc(N3CCN(c4ccncc4)CC3)n2)nnc1C(N)=O | 6.9 (≈ 2.74 µg/mL)
CCCCN1CCC(Cc2noc(-c3cc(Cl)c(N)c4c3OCCO4)n2)C1 (stereo unspecified) | 6.9 (≈ 2.71 µg/mL)
O=C(Nc1nnc(-c2ccc(F)cc2)o1)c1ccc(Cl)cc1 | 6.9 (≈ 2.19 µg/mL)
O=C(Nc1ccc(C(F)(F)F)cc1)OCC1CCCN2CCCCC12 (stereo unspecified) | 6.9 (≈ 2.46 µg/mL)
COc1cccc(CNc2nc(C)cc(-c3cccc(CN(C)C)c3)n2)c1 | 7 (≈ 2.54 µg/mL)
CC1CCC(NC(=O)Nc2ccc3snnc3c2)CC1 (stereo unspecified) | 7 (≈ 2.03 µg/mL)
O=C(Nc1nc(-c2ccccn2)cs1)c1ccc(Oc2ccccc2)cc1 | 7 (≈ 2.61 µg/mL)
COc1ccc(S(=O)(=O)CC(=O)N(CCN(C)C)c2nc3c(C)ccc(Cl)c3s2)cc1 | 7 (≈ 3.37 µg/mL)
Cc1c(Cl)ccc2sc(N(CCN(C)C)C(=O)c3ccc(S(C)(=O)=O)cc3)nc12 | 7 (≈ 3.16 µg/mL)
COc1ccc(-c2ccc(Nc3cccc(S(=O)(=O)CCNCC4CCCO4)c3)nc2)cn1 (stereo unspecified) | 7 (≈ 3.28 µg/mL)
O=C(NC1CCN(Cc2ccc(F)cc2)C1)c1sccc1-c1cccc(Cl)c1 (stereo unspecified) | 7 (≈ 2.9 µg/mL)
Cc1nn(-c2nc(-c3ccccn3)nc3ccsc23)c(N)c1C#N | 7 (≈ 2.33 µg/mL)
COc1cc(C(=O)Nc2nc(-c3ccccn3)cs2)ccc1OCC(C)C | 7 (≈ 2.68 µg/mL)
CSc1ccc(C(=O)Nc2nnc(-c3ccc4c(c3)CCCC4)o2)cc1 | 7 (≈ 2.56 µg/mL)
COc1cc(CCN2CC[C@H](NC(=O)c3ccc(Cl)c(Cl)c3)C2)ccc1OC1CCNCC1 | 7 (≈ 3.45 µg/mL)
COc1cc(/C=C/C(=O)O)ccc1OCCN1CCCCCC1 | 7 (≈ 2.24 µg/mL)

SMILES | MIC90 [µM]
COc1ccc(Nc2ccccc2NC(=O)c2ccc(O)nc2)cc1 | 9 (≈ 3.02 µg/mL)
Cc1c(C(=O)[C@@H]2C[C@H]2CN(Cc2ccccn2)Cc2ccccn2)sc2ccccc12 | 7.1 (≈ 3.04 µg/mL)
Cc1ccc(Cl)cc1Oc1ccncc1CNc1ccccc1S(C)(=O)=O | 7.1 (≈ 2.86 µg/mL)
NCCCOc1cccc2c(-c3ccncc3)c(-c3cccc(NC(=O)Nc4ccccc4)c3)nn12 | 7.1 (≈ 3.4 µg/mL)
Brc1ccc2cc(C3=NCCCO3)[nH]c2c1 | 7.1 (≈ 1.98 µg/mL)
Cc1cc(CN2CC[C@H](NC(=O)c3ccc(Cl)c(Cl)c3)C2)ccc1OCCN1CCNCC1 | 7.1 (≈ 3.49 µg/mL)
CSc1cccc(-c2nnc(NC(=O)c3ccc4c(c3)CCCC4)o2)c1 | 7.2 (≈ 2.63 µg/mL)
COc1ccc(NC(=O)c2ccc(CN3CCCCC3)o2)c(OC)c1 | 7.2 (≈ 2.48 µg/mL)
CCc1c(C)sc2nc(C)nc(SCC(=O)NCc3ccccc3)c12 | 7.2 (≈ 2.68 µg/mL)
C=Cn1cccc1C(=O)N1CCCC(n2cnc3sc(C)c(CC)c3c2=O)C1 (stereo unspecified) | 7.3 (≈ 2.89 µg/mL)
COc1ccc(-c2ccc(Nc3cccc(S(=O)(=O)CCN(C)CCc4ccccn4)c3)nc2)cn1 | 7.3 (≈ 3.68 µg/mL)
O=C(NC1CCN(Cc2ccsc2)C1)c1sccc1-c1cccc(F)c1 (stereo unspecified) | 7.3 (≈ 2.82 µg/mL)
COc1ccc(CN(C)S(=O)(=O)c2ccc(OC)c(-c3nc(C(C)C)no3)c2)cc1 | 7.3 (≈ 3.15 µg/mL)
O=C(Nc1nnc(-c2ccc(Cl)s2)o1)c1ccc(S(=O)(=O)N2CCCCC2)cc1 | 7.3 (≈ 3.31 µg/mL)
Cn1cc(-c2noc(/C=C3/CCN4CCCC[C@@H]4C3)n2)c2ccccc21 | 7.3 (≈ 2.54 µg/mL)
O=C(/C=C/c1ccccc1C(F)(F)F)Nc1ccc2c(c1)C1CCCN1CC2 (stereo unspecified) | 7.3 (≈ 2.82 µg/mL)
CN1CCCN(c2ncnc3sc(-c4ccccc4)cc23)CC1 | 7.4 (≈ 2.4 µg/mL)
COc1ccc(-c2ccc(Nc3cccc(S(=O)(=O)CCN(C)Cc4ccccc4)c3)nc2)cn1 | 7.4 (≈ 3.62 µg/mL)
CN1CCN(c2cc(-c3ccc(F)cc3)nc(-c3ccncc3)n2)CC1 | 7.9 (≈ 2.76 µg/mL)
Cc1cc(C)cc(Oc2ncnc(N3CCCC3CN)c2C)c1 (stereo unspecified) | 7.5 (≈ 2.34 µg/mL)
O=C(Nc1ccc(F)c(Cl)c1)c1cnc(N2CCN(c3ncccn3)CC2)c2ccccc12 | 7.5 (≈ 3.47 µg/mL)
NC(=O)c1cccc(-c2ccc(OCCCN3CC[C@@H](OCc4ccccc4)C3)cc2)c1 | 7.5 (≈ 3.23 µg/mL)
NC(=O)c1cnc2ccc(S(=O)(=O)c3ccccc3)cc2c1Nc1ccc(O)c(F)c1 | 7.5 (≈ 3.28 µg/mL)

SMILES | MIC90 [µM]
COc1ccc(Cc2nn3c(-c4ccc(C)cc4)nnc3s2)cc1 | 7.5 (≈ 2.52 µg/mL)
C[C@@H]1CN(c2ncnc3c2nc(C2CC2)n3C2CCNC2)C[C@H](C)O1 (stereo partly specified) | 7.5 (≈ 2.57 µg/mL)
c1cc(Oc2ccnc(N3CCC4(CCNC4)CC3)n2)c2cc[nH]c2c1 | 7.5 (≈ 2.62 µg/mL)
COc1ccc(-c2ccc(Nc3cccc(S(=O)(=O)CCNCCc4cccs4)c3)nc2)cn1 | 7.2 (≈ 3.56 µg/mL)
Cc1ccc2nc(Cl)c(CNCc3cccs3)cc2c1 | 7.2 (≈ 2.18 µg/mL)
Cc1ccc2nc(NC(=O)c3cc(C)nc4c3c(C)nn4C(C)C)sc2c1 | 7.6 (≈ 2.88 µg/mL)
COc1cccc(C(=O)Nc2nc(-c3ccccn3)cs2)c1 | 7.6 (≈ 2.37 µg/mL)
CCc1c(C)nc(-c2cccc(F)c2)nc1N1CCNCC1 | 7.6 (≈ 2.28 µg/mL)
COc1ccc(-c2nnc(NC(=O)c3ccc(Br)s3)o2)cc1 | 7.6 (≈ 2.89 µg/mL)
O=C(NC1CCNCC1)c1nn(-c2ccc(Cl)cc2)c(=O)cc1N1CCC(Cc2ccccc2)CC1 | 7.6 (≈ 3.85 µg/mL)
COC(=O)COc1ccc(CCn2nnc(-c3ccc(C(F)(F)F)cc3)n2)cc1 | 7.6 (≈ 3.09 µg/mL)
O=C(Nc1ccccc1-c1nc(Cl)cs1)OCCOC1CCNCC1 | 7.6 (≈ 2.9 µg/mL)
O=C(NC(Cc1ccccc1)C(=O)Nc1ccccc1N1CCOCC1)c1cccs1 (stereo unspecified) | 1.8 (≈ 0.784 µg/mL)
Cc1ccc2nc(C)c(C(=O)NCC(C)C)n2c1 | 4.8 (≈ 1.18 µg/mL)
COc1ccccc1NC(=O)CN(Cc1ccco1)C(=O)c1cccc(-n2cnnn2)c1 | 7.7 (≈ 3.33 µg/mL)
COc1ccc(C(=O)[C@H]2C[C@@H]2CN(Cc2ccccn2)Cc2ccccn2)cc1 | 7.7 (≈ 2.98 µg/mL)
Oc1ccc(Nc2ccccc2Nc2ccccc2)cc1Cl | 7.7 (≈ 2.39 µg/mL)
CCCc1ccc(S(=O)(=O)Nc2ccc(CN3CCN(CC4CC4)CC3)cc2)cc1.O=C(O)C(F)(F)F.O=C(O)C(F)(F)F | 8.1
Cc1ccc(SCCNC(=O)c2c(-c3ccccc3)noc2C)cc1 | 8.7 (≈ 3.07 µg/mL)
O=C(Nc1nnc(-c2ccc(Cl)s2)o1)c1ccc(Cl)s1 | 7.5 (≈ 2.6 µg/mL)
Cc1cc(C)c(C)c(OCCCCNCc2ccco2)c1 | 7.8 (≈ 2.24 µg/mL)
CCCOc1c(Br)cc(CNCC)cc1OCC | 7.8 (≈ 2.47 µg/mL)
CN(CCOc1cccc(-c2ccc(C(=O)N3CCCC3)cc2)c1)Cc1ccc(F)cc1 | 7.8 (≈ 3.37 µg/mL)

SMILES | MIC90 [µM]
O=S(=O)(c1ccc(Cl)cc1)N1CCC(n2nnc3cc(C(F)(F)F)ccc32)CC1 | 7.8 (≈ 3.47 µg/mL)
CC(=CC(=O)NC12CC3CC(CC(C3)C1)C2)c1cccc(Cl)c1 | 7.8 (≈ 2.57 µg/mL)
c1ccc(Cc2nnc(Sc3ccnc(N4CCN(c5ccncc5)CC4)n3)n2CCN2CCOCC2)cc1 | 9.9 (≈ 5.38 µg/mL)
CC1=Nc2ccccc2CN1CC(O)c1cc(Br)cs1 (stereo unspecified) | 8.4 (≈ 2.95 µg/mL)
Cc1c(Cl)cc(F)cc1S(=O)(=O)NCCCn1nc(Cl)c(N2CCCNCC2)cc1=O | 7.9 (≈ 3.89 µg/mL)
COc1ccc(-c2ccc(Nc3cccc(S(=O)(=O)CCN(C)Cc4cccs4)c3)nc2)cn1 | 7.9 (≈ 3.91 µg/mL)
CCCn1nnnc1NC(=O)c1ccc(Cl)c(Cl)c1 | 7.9 (≈ 2.37 µg/mL)
CNC(=O)c1cc(Nc2ncc(F)c(N(C)c3ccc4c(C)[nH]nc4c3)n2)cc(OCCCN)c1 | 7.9 (≈ 3.78 µg/mL)
CC(=O)CCN1C(=O)C(=O)c2cc(Br)ccc21 | 7.9 (≈ 2.34 µg/mL)
O=C(Nc1nc(-c2ccccn2)cs1)c1cncn1-c1ccccc1 | 4.9 (≈ 1.7 µg/mL)
CCCOC(=O)COc1ccc2c(=O)c(-c3ccccc3OC)coc2c1 | 9.8 (≈ 3.61 µg/mL)
CN(C)S(=O)(=O)c1ccc(C(=O)Nc2nnc(-c3ccc(Br)cc3)o2)cc1 | 8 (≈ 3.61 µg/mL)
O=C(c1cccc(-n2cnnn2)c1)N1CCCCC1c1nc2ccccc2s1 (stereo unspecified) | 8 (≈ 3.12 µg/mL)
O=C(Nc1ccccc1-c1nc(Br)cs1)OCC1CCNCC1 | 8 (≈ 3.17 µg/mL)
Cc1cc(/C=C/c2cccc(C(=O)O)c2)cc(Cl)c1OC1CCN(C)C1 (stereo unspecified) | 8 (≈ 2.97 µg/mL)
Cc1nc(SCC(=O)Nc2sccc2C#N)n(Cc2ccc(Cl)cc2)c1C | 8.1 (≈ 3.38 µg/mL)
c1ccc(-c2nc(NC3CCCCC3)cc(C3CC3)n2)nc1 | 3.7 (≈ 1.09 µg/mL)
CCCc1cc(=O)[nH]c(-n2nc(C)cc2NC(=O)CC(c2ccccc2)c2ccccc2)n1 | 7.5 (≈ 3.31 µg/mL)
Cc1ccc2[nH]c(C3CCCNC3)c(-c3ccncc3)c2c1 (stereo unspecified) | 8.9 (≈ 2.59 µg/mL)
